T1: CYP11A (Homo sapiens, UniProt P05108)
T1 construct: A 1.45-kb CYP11A1 gene fragment amplified as a result of the above-described reaction; expressed in transfected cells; host or cells: Escherichia coli BL21(DE3), plasmid pCYP11A-ARX (strain BL21CYP11)
T1 sequence (P05108 40-521): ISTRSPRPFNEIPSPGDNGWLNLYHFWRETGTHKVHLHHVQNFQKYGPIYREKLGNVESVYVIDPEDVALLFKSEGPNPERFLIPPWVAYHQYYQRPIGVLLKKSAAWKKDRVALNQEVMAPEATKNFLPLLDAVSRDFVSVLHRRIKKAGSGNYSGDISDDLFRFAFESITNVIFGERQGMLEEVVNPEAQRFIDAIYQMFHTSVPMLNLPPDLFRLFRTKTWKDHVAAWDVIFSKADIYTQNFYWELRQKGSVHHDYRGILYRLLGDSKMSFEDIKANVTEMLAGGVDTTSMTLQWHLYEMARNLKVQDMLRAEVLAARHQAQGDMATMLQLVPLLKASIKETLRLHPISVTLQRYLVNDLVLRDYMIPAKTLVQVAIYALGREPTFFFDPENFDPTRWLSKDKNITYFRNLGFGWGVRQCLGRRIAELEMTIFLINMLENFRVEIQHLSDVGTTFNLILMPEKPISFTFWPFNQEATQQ

B1: Novosphingobium aromaticivorans ATCC 700278 P450scc CYP204A1, wild type, SEQ ID NO: 23 (Novosphingobium aromaticivorans DSM 12444) (protein)
chain: MARAATAAGNGLPLLDGGVPLLGHLAQFFRDPVSVLKRGYRSKGRLFAMNFMGQRMNVMLGPEHNRFFFEETDKLLSIRESMPFFLKMFSPEFYSFAEMDEYLRQRSIIMPRFKAASMKQYVPVMVEESLNLVERLGEEGEFDLIPTLGPVVMDIAAHSFMGREFHEKLGHEFFELFRDFSGGMEFVLPLWLPTPKMVKSQRAKRKLHAILQSWIDKRRAAPLDPPDFFQTMIETKYPDGRPVPDEIIRHLILLLVWAGHETTAGQVSWALADLLQNPDYQKVLRGEISSLLGGSDGRDLGWEQAVAMEKMDLALRETERLHPVAYMLSRKARADIERDGYVIRKGEFVLLAPSVSHRMEETFRNPDAYDPERFNPANPDAQIESNSLIGFGGGVHRCAGVNFARMEMKVLVAILLQNFDMELMDEVRPIAGASTYWPAQPCRVRYRRRKLDGSEAGADMAALARAAGCPAHT

Tests used:
[1] = system: CYP204A1; details: for Conversion rate: strain BP172, same reaction as Example 6 (28° C., 5 hours)
Description: Novosphingobium aromaticivorans (ATCC 700278) was inoculated into an L medium, and it was then cultured at 30° C. for 2 days. Thereafter, genomic DNA was extracted from the cell mass obtained in the same manner as that of Example 1. A fragment comprising a CYPSS204A1 gene and a ferredoxin gene located downstream thereof was amplified from the above-described genomic DNA by using a primer CYP-5F (SEQ ID NO: 9) and a primer CYP-6R (SEQ ID NO: 10) and also using La Taq polymerase (manufactured by Takara Bio INC.). The temperature conditions applied during this operation were 94° C./3 min, 30 cycles of (98° C./20 sec, 63° C./30 sec, and 68° C./2 min), and 72° C./5 min.
Escherichia coli BL21(DE3) was transformed with this plasmid, and the obtained cell strain was named as BP172.
(§1) The Escherichia coli expression strain BP215 was inoculated into 2 ml of an M9 mix medium (Na2HPO4: 0.68%, KH2PO4: 0.3%, NaCl: 0.05%, NH4C;: 0.01%, Casamino acid: 1%, D-Glucose: 0.4%, CaCl2: 0.1 mM, MgCl2: 1 mM, Thiamine: 0.002%, FeSO4: 0.1 mM, Carbenicillin: 0.005%), and it was then subjected to shaking culture at 30° C. for 17 hours, so as to obtain pre-culture solution. 0.25 ml of this pre-culture solution was inoculated into 25 ml of the main culture medium (Na2HPO4: 0.68%, KH2PO4: 0.3%, NaCl: 0.05%, NH4Cl: 0.01%, Casamino acid: 1%, CaCl2: 0.1 mM, MgCl2: 1 mM, Thiamine: 0.002%, FeSO4: 0.1 mM, Carbenicillin: 0.005%, Overnight Express™ solution: 7%, 5-Aminolevlic acid: 0.008%) using Overnight Express™ Autoinduction System (Novagen Cat. No. 71300-4), and it was then subjected to shaking culture at 25° C. for 24 hours. 5 ml of the obtained main culture solution was centrifuged (3500 rpm, 10 minutes) to obtain cell mass, and 1 ml of CV2 buffer (50 mM (pH) potassium phosphate buffer containing glycerol: 2%, carbenicillin: 0.005%, and isopropyl β-D-1-thiogalactopyranoside: 0.1 mM) was added to the obtained cell mass. Thereafter, 0.01 ml of the methanol solution of 1% 4-cholesten-3-one and 0.02 ml of an aqueous solution of 25% methyl-β-cyclodextrin were added to the mixed solution, and the obtained mixture was then shaken at 28° C. for 5 hours for the reaction. After completion of the reaction, 4 ml of methanol was added to the reaction solution, and they were then fully mixed. The obtained mixture was centrifuged, and the upper layer was then analyzed by HPLC.
As substrates, 4-cholesten-3-one, cholesterol, 7-dehydrocholesterol, ergosterol, 13-sitosterol, stigmasterol, campesterol, desmosterol, (20S)-20-hydroxycholest-4-en-3-one, (22R)-22-hydroxycholest-4-en-3-one, (20R,22R)-20,22-dihydroxycholest-4-en-3-one, and (20R,22S)-20,22-dihydroxycholest-4-en-3-one were used. Each substrate was subjected to the same reaction as that of Example 6, separately, and the generated product was then analyzed by HPLC.

[2] = system: CYPSS204A; assay: Conversion reaction of substrates by Escherichia coli expression strain BP215; format: cell-based, Sphingomonas subterranea NBRC 16086; details: strain BP215, 28° C., 5 hours; for Conversion rate: to progesterone, pregnenolone or 7-dehydropregnenolone
Description: The temperature conditions applied during the PCR were 95° C./5 min, 30 cycles of (98° C./30 sec, 60° C./30 sec, and 68° C./2 min), and 68° C./10 min.
Analysis conditions: Using Chromolith speed rod RP18e (50×4.6 mm) column, 50%→100% CH3CN gradient (0 to 3 min) and 100% CH3CN (3 to 8 min) were used as a mobile phase, and detection was carried out at a flow rate of 2 ml/min using CAD™ (Charged Aerosol Detection) and MS.

[3] = target: T1, CYP11A; assay: Conversion reaction of substrates by CYP11A-expressing Escherichia coli; format: cell-based; details: for Conversion rate: same reaction as Example 6 (28° C., 5 hours)
Description: as §1
A commercially available human testis cDNA (Origene Technologies, Inc.) was used as a template, and a CYP11A1 gene was amplified by PCR using a primer CYP11A-1F (SEQ ID NO: 19) and a primer CYP11A-2R (SEQ ID NO: 20), and also using KOD plus polymerase (TOYOBO Co., Ltd.). The temperature conditions applied during the PCR were 94° C./3 min, 30 cycles of (94° C./30 sec, 55° C./60 sec, and 72° C./90sec), and 72° C./5 min.
A 1.45-kb CYP11A1 gene fragment amplified as a result of the above-described reaction was purified using QIAquick PCR purification Kit (manufactured by QIAGEN), and it was then digested with Nde I and Spe I. Thereafter, the digest was ligated to Escherichia coli expression vector pT7NS-camAB, using T4 DNA ligase, and Escherichia coli DH5α was then transformed with the obtained expression vector, so as to construct a plasmid pCYP11A-camAB. Subsequently, using T4 DNA ligase, the previously prepared bovine-derived adrenodoxin reductase protein-adrenodoxin gene (adr-adx) fragment was inserted into and ligated to each of the Spe I and Bam HI sites of the above-described plasmid, and Escherichia coli DH5a was then transformed with the obtained plasmid, so as to construct plasmid pCYP11A-ARX. Thereafter, Escherichia coli BL21(DE3) was transformed with the thus constructed plasmid, and the obtained cell strain was named as BL21CYP11. The used adx-adr fragment was amplified by PCR with a plasmid pKARX (Sawada et. al. Eur. J. Biochem. 265, 950-956,1999) as a template, using primer bAdxR-1F (SEQ ID NO: 21) and primer bAdx-2R (SEQ ID NO: 22), and also using KOD plus polymerase (manufactured by TOYOBO Co., Ltd.). The temperature condition applied during the PCR were 94° C./3 min, 25 cycles of (94° C./30 sec, 60° C./30 sec, and 72° C./120sec), and 72° C./5 min.
Each substrate was subjected to the same reaction as that of Example 6, separately, and the reaction solution was then subjected to liquid separation using 1 ml of ethyl acetate. The reaction product and the substrate were extracted, and were then analyzed by HPLC.

[4] = substrate: CC(C)CCC[C@@H](C)[C@H]1CC[C@H]2[C@@H]3CCC4=CC(=O)CC[C@]4(C)[C@H]3CC[C@]12C; assay: purified protein, by the assay type; details: other: 4-cholesten-3-one 0.1 to 500 μM, pH 7.5, 15° C., 60 minutes, Lineweaver-Burk plot
[5] = strain BP172, same reaction as Example 6

Molecule | Conversion rate [1] [%] | accumulated amount of side-chain cleavage product [2] [mg/L] | added substrate remained [2] [%] | Conversion rate [2] [%] | added substrate remained ([3]; same reaction as Example 6) [%] | Conversion rate [3] [%] | accumulated amount of pregnenolone [1, 5] [mg/L] | added substrate remained [1, 5] [%] | accumulated amount of pregnenolone [2] [mg/L] | accumulated amount of pregnenolone ([3]; same reaction as Example 6) [mg/L] | Km [4] [µM]
CC[C@H](/C=C/[C@@H](C)[C@H]1CC[C@H]2[C@@H]3CC=C4C[C@@H](O)CC[C@]4(C)[C@H]3CC[C@]12C)C(C)C [stigmasterol] | 6.5 | 5.8 | 70.8 | 5.8 | 100 | 0 |  |  |  |  | 
CC(C)CC[C@@H](O)[C@@H](C)[C@H]1CC[C@H]2[C@@H]3CC=C4C[C@@H](O)CC[C@]4(C)[C@H]3CC[C@]12C [(22R)-22-hydroxy-cholesterol] | 69.5 |  | 14.8 | 80 | 78.6 | 28.0 | 69.5 | 42.8 | 80.0 | 28.0 | 
CC(C)=CCC[C@@H](C)[C@H]1CC[C@@]2(C)C3=C(CC[C@]12C)[C@@]1(C)CC[C@H](O)C(C)(C)[C@@H]1CC3 [Lano, lanosterol] | 0 |  |  | 0 |  | 0 |  |  |  |  | 
B1 |  |  |  |  |  |  |  |  |  |  | 1.0

Source: US20120178124A1, “STEROL SIDE CHAIN-CLEAVING ENZYME PROTEIN AND USE THEREOF” (MITSUBISHI CHEMICAL CORPORATION, priority 2009, published 2012)
